Data: US20230381270A1, “PHARMACEUTICAL COMBINATIONS FOR TREATING CANCER” (POLYPHOR AG, priority 2017, published 2023)
Like-named read-outs stand apart in the source and are kept apart here.

Experiments:
metastatic breast cancer = details: cited from earlier work
human CXCR4 receptor = human CXCR4 receptor (Homo sapiens, UniProt P61073); test: In vitro receptor binding studies
Source text: (§1) Cyclo(-Tyr-His-Ala-Cys-Ser-Ala-^DPro-Dab-Arg-Tyr-Cys-Tyr-Gln-Lys-^DPro-Pro-) having a disulfide bond between Cys4 and Cys11 is also referred as POL6326 herein or balixafortide. POL6326 is a cyclic synthetic peptide consisting of 16 amino acids and an antagonist of the highly conserved chemokine receptor CXCR4 and is being developed as an IV treatment in combination with chemotherapy in patients with leukemias (autologous transplantation).

[1] = test system: other potential target receptors; test: In vitro receptor binding studies, other receptors
Source text: as §1

[2] = Phase I trial of eribulin + POL6326: safety and tolerability (adverse events); type: in vivo, human; details: balixafortide-related; most frequent during Day 1, Cycle 1
Source text: This open-label, single-arm, non-randomised Phase I, dose escalation trial enrolled HER2-negative (any oestrogen or progesterone receptor status) females age […] years with histologically confirmed invasive breast cancer, stage IV disease (American Joint Committee on Cancer criteria), evidence of tumour cell CXCR4 expression by immunohistochemistry on tumour tissue (archival primary tumour, metastatic tissue, or from a fresh biopsy), and at least one measurable lesion according to Response Evaluation Criteria in Solid Tumours (RECIST) 1.1 criteria. Patients had previously received […] chemotherapy regimens for metastatic breast cancer (MBC). Patients with hormone receptor positive status must have failed at least one endocrine therapy or be considered unsuitable for endocrine therapy. Eligibility criteria also included an Eastern Cooperative Oncology Group performance status of 0 or 1. This phase I study investigates the combination of eribulin with POL6326 in relapsed metastatic breast cancer. The primary objectives are the safety, tolerability, and pharmacokinetics (PK) of this combination therapy, as well as the maximum tolerated dose (MTD) and recommended phase 2 dose (RP2D) of POL6326 when added to eribulin. Efficacy, as measured by tumor response, was additionally assessed.
Treatment cycles of 21 days each. […]

advanced cancer = details: monotherapy (Galsky 2014); cited from earlier work
[3] = Phase II study, eribulin alone (Cortes et al 2010)
[4] = Phase II study, eribulin alone (Vandat et al 2009)
[5] = relapsed mBC patients in 3rd line and beyond, published data

human CXCR4 receptor, sequence (P61073 whole entry): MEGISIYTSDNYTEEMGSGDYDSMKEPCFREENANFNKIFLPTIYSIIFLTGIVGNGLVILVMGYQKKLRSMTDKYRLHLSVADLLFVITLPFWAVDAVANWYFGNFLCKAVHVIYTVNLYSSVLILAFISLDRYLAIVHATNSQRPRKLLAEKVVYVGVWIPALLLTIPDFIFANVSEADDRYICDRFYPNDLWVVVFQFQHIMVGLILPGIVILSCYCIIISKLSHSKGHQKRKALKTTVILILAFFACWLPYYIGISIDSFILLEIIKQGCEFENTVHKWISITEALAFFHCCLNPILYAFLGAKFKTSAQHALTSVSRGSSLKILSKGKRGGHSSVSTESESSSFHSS

For C=C1C[C@@H]2CC[C@@]34C[C@H]5O[C@H]6[C@@H](O3)[C@H]3O[C@H](CC[C@@H]3O[C@H]6[C@H]5O4)CC(=O)C[C@@H]3[C@@H](OC)[C@@H](C[C@H](O)CN)O[C@H]3C[C@H]3O[C@@H](CC[C@@H]1O2)C[C@@H](C)C3=C [eribulin, 2-(3-amino-2-hydroxypropyl)hexacosahydro-3-methoxy-26-methyl-20,27-bis(methylene)11,15-18,21-24,28-triepoxy-7,9-ethano-12,15-methano-9H,15H-furo (3,2-i)furo(2′,3′-5,6)pyrano (4,3-b)(1,4)dioxacyclopentacosin-5-(4H)-one], the CBR (metastatic breast cancer; [3]) is given as 17.1%, the ORR (metastatic breast cancer; [3]) is given as 9% and the CBR (metastatic breast cancer; [4]) is given as 17.2%. The ORR (metastatic breast cancer; [4]) was 11.5%, the mPFS (metastatic breast cancer; eribulin alone, published trials recruiting similar patients) was 2.6-4.1 months and the “One year OS” value (metastatic breast cancer; eribulin alone, reported) was 53.9%. For the same compound, the ORR (metastatic breast cancer; randomised Phase III trial (EMBRACE, Cortes 2011)) was 12%, the ORR (metastatic breast cancer; randomised Phase III trial (Kaufman 2015)) was 11% and the “overall survival (OS)” value (metastatic breast cancer; [5]) was 13.1 months. For the same compound, the “progression-free survival (PFS)” value (metastatic breast cancer; [5]) was 3.7 months.

In the case of “Cyclo(-Tyr-His-Ala-Cys-Ser-Ala-^DPro-Dab-Arg-Tyr-Cys-Tyr-Gln-Lys-^DPro-Pro-) having a disulfide bond between Cys4 and Cys11 [POL6326]”, the “affinity for the human CXCR4 receptor” value (human CXCR4 receptor) is reported as “significant affinity”, the “binding to other potential target receptors” value [1] is reported as “general lack of significant binding” and the “infusion-related reactions (IRRs)” value [2] is reported as “the majority were low grade”.

In the case of LY2510924, the DLT (advanced cancer) is listed as “abnormal neutrophil count”.
